The text below walks through data of ChEMBL document CHEMBL5465560, “Selectivity Literature for EUbOPEN Chemogenomic Library” (2024).

For assay [1], the target named is T1, Serine/threonine-protein kinase Sgk1 (Homo sapiens) (UniProt O00141).
T1 sequence (whole entry): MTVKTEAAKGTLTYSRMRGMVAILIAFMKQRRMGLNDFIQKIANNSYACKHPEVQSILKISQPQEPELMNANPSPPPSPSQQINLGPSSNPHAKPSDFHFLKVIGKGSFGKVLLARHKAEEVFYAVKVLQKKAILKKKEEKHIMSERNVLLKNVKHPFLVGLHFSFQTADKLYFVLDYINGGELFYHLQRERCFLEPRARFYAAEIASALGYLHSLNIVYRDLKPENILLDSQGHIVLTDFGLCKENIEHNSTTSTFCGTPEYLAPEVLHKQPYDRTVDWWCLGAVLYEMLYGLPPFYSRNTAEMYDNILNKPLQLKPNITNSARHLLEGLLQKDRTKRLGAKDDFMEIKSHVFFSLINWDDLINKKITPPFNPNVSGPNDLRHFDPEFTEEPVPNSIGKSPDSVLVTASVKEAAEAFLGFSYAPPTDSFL
Briefly: Selectivity interaction (ProQinase) EUB0000171b SGK1.

Assay [2] deals with Serine/threonine-protein kinase 25 (Homo sapiens) (UniProt O00506). Briefly: Selectivity interaction (KinomeScan (DiscoverX)) EUB0001079a STK25. The note with it: at 1 µM.
Serine/threonine-protein kinase 25 (Homo sapiens), sequence (O00506 whole entry, looked up): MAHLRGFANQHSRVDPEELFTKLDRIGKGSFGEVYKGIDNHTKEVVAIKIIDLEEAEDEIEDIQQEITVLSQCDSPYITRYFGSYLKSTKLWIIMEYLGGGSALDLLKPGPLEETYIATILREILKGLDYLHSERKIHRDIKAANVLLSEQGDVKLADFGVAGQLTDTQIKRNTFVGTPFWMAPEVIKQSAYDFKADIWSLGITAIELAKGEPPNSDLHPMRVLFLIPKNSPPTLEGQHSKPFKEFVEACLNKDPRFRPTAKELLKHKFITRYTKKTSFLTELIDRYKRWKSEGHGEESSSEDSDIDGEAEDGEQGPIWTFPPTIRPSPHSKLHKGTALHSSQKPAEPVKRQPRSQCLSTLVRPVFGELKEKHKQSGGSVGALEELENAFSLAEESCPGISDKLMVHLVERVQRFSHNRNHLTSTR
The target of assay [3] is Serine/threonine-protein kinase B-raf (Homo sapiens) (UniProt P15056). In words: Selectivity interaction (KinomeScan (DiscoverX)) EUB0000092b BRAF. The note with it: at 10 µM.
Assay [4] has as its system eIF-2-alpha kinase GCN2 (Homo sapiens), Q9P2K8 [S808G]. In words: Selectivity interaction (KinomeScan (DiscoverX)) EUB0000655a EIF2AK4. The conditions noted are these: at 10 µM.
The target of assay [5] is Homeodomain-interacting protein kinase 1 (Homo sapiens, UniProt Q86Z02). In words: Selectivity interaction (KinomeScan (DiscoverX)) EUB0000695a HIPK1. The note with it: at 100 nM.
Homeodomain-interacting protein kinase 1, sequence (Q86Z02 whole entry, looked up): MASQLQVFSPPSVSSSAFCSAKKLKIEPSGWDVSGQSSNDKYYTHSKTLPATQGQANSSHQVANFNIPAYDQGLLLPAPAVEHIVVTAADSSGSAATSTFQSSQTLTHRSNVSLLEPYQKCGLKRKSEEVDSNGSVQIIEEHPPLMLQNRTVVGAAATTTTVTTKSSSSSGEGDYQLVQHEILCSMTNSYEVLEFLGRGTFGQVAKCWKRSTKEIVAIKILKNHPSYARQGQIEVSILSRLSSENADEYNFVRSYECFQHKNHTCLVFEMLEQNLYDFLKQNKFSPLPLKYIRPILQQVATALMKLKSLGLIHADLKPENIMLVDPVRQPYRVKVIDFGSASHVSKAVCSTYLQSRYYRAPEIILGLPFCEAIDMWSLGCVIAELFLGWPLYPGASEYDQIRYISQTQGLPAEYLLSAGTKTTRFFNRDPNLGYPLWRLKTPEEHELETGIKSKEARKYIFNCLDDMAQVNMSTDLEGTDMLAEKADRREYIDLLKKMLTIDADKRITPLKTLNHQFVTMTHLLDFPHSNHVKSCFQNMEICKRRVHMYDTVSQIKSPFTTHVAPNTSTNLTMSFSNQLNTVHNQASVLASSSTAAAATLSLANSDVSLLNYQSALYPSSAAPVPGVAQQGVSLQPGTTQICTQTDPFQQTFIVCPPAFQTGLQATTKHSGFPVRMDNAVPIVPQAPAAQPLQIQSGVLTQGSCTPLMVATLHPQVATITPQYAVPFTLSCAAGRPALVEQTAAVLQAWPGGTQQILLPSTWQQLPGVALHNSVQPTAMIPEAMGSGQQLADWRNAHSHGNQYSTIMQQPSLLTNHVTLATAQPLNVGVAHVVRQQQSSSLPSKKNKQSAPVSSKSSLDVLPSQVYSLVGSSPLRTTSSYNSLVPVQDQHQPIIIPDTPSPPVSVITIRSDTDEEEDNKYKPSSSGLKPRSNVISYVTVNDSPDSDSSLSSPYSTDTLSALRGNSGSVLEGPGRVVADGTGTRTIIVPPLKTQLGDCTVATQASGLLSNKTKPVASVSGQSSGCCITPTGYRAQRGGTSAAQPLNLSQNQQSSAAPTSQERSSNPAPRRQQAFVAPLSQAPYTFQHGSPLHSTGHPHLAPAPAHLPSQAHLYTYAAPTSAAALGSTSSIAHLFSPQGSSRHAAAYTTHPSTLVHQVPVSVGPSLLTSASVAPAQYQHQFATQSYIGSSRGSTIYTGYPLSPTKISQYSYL
Assay [6] has as its target Delta-type opioid receptor (Homo sapiens, UniProt P41143). Briefly: Selectivity interaction (Panel of non-epigenetic targets (kinases, GPCRs, ion channels, and transporters, Eurofins) ) EUB0000271b OPRD1. The note with it: at 1 µM.
Assay [7] has as its target T2, Protein kinase C epsilon type (Homo sapiens) (UniProt Q02156).
T2 sequence (whole entry): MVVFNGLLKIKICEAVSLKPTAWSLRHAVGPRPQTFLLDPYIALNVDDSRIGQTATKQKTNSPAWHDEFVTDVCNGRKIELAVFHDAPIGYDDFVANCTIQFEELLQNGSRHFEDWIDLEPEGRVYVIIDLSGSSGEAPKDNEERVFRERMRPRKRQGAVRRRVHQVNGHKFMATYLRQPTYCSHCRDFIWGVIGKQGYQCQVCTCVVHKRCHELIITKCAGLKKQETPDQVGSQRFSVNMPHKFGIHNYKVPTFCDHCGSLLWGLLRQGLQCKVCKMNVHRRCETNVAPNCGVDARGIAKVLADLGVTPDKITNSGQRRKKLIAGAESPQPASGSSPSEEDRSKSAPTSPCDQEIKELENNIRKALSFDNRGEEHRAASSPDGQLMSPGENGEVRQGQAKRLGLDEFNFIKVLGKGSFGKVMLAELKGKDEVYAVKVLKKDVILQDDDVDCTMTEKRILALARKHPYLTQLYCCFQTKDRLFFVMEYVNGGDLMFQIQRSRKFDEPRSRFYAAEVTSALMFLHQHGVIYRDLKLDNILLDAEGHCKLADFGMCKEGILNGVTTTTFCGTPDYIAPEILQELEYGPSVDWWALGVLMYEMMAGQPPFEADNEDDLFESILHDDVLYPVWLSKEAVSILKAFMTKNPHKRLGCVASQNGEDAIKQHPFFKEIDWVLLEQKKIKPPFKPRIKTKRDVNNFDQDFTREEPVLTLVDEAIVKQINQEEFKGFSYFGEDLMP
Briefly: Selectivity interaction (KinomeScan (DiscoverX)) EUB0000045b PRKCE.

Assay [8] concerns the target Mitogen-activated protein kinase 10 (Homo sapiens, UniProt P53779). Briefly: Selectivity interaction (KinomeScan (DiscoverX)) EUB0000045b MAPK10.
The target in assay [9] is G protein-coupled receptor kinase 6 (Homo sapiens) (UniProt P43250). In words: Selectivity interaction (Kinase panel (Invitrogen)) EUB0000639a GRK6. The note with it: at 200 nM.
Assay [10] has as its target Mitogen-activated protein kinase 14 (Homo sapiens, UniProt Q16539). Briefly: Selectivity interaction (ActivX KiNativ screen (kinase selectivity in THP-1 cell lysates)) EUB0000639a MAPK14. The assay is classed as subcellular. The conditions noted are these: lysate, at 0.01 µM.
Assay [11] has as its target Receptor tyrosine-protein kinase erbB-3 (Homo sapiens) (UniProt P21860). Briefly: Selectivity interaction (KinomeScan (DiscoverX)) EUB0000229b ERBB3. The conditions noted are these: at 10 µM.
Assay [12] has as its target 5'-AMP-activated protein kinase catalytic subunit alpha-2 (Homo sapiens) (UniProt P54646). Briefly: Selectivity interaction (KinomeScan (DiscoverX)) EUB0000595a PRKAA2. The conditions noted are these: at 10 µM.
Assay [13] addresses Ribosomal protein S6 kinase alpha-3 (Homo sapiens, UniProt P51812). Briefly: Selectivity interaction (Kinase panel (literature)) EUB0001199aCl RPS6KA3. The conditions noted are these: at 1 µM.
The target of assay [14] is T3, Inhibitor of nuclear factor kappa-B kinase subunit beta (Homo sapiens) (UniProt O14920).
T3 sequence (whole entry): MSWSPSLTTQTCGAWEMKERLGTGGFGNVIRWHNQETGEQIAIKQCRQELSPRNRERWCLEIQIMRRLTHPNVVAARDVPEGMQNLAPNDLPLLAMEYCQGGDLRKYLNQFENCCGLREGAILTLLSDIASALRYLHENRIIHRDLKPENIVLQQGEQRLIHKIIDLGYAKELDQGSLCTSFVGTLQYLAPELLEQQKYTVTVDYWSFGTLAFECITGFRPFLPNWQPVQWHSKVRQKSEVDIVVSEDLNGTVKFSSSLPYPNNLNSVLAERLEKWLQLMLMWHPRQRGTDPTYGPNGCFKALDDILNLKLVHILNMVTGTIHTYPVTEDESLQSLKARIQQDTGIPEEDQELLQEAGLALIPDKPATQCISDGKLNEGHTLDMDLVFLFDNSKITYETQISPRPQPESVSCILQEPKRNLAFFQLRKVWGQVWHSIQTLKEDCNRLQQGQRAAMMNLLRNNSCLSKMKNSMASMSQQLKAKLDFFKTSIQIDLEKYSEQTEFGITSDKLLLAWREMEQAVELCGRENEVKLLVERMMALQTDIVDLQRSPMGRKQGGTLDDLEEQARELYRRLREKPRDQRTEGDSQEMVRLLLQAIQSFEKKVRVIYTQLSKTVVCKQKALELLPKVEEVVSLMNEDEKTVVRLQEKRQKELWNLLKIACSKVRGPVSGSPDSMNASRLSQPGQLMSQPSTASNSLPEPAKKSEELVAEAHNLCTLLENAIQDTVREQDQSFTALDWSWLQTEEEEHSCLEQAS
Briefly: Selectivity interaction (KinomeScan (DiscoverX)) EUB0000618a IKBKB. The note with it: at 10 µM.

Mitogen-activated protein kinase 10, sequence (P53779 whole entry): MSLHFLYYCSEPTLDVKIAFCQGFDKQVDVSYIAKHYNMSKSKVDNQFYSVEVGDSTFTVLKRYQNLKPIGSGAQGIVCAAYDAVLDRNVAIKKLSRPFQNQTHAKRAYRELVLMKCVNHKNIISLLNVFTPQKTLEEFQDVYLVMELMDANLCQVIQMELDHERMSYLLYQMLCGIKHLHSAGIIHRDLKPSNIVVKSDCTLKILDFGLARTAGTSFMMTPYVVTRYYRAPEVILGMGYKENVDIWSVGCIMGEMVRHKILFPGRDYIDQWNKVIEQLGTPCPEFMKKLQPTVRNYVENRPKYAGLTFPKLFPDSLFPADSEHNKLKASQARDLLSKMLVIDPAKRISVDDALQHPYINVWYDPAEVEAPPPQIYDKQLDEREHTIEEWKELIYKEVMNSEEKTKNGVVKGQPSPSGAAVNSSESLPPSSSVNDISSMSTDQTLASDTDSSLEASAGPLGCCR
Receptor tyrosine-protein kinase erbB-3 (Homo sapiens), sequence (P21860 whole entry): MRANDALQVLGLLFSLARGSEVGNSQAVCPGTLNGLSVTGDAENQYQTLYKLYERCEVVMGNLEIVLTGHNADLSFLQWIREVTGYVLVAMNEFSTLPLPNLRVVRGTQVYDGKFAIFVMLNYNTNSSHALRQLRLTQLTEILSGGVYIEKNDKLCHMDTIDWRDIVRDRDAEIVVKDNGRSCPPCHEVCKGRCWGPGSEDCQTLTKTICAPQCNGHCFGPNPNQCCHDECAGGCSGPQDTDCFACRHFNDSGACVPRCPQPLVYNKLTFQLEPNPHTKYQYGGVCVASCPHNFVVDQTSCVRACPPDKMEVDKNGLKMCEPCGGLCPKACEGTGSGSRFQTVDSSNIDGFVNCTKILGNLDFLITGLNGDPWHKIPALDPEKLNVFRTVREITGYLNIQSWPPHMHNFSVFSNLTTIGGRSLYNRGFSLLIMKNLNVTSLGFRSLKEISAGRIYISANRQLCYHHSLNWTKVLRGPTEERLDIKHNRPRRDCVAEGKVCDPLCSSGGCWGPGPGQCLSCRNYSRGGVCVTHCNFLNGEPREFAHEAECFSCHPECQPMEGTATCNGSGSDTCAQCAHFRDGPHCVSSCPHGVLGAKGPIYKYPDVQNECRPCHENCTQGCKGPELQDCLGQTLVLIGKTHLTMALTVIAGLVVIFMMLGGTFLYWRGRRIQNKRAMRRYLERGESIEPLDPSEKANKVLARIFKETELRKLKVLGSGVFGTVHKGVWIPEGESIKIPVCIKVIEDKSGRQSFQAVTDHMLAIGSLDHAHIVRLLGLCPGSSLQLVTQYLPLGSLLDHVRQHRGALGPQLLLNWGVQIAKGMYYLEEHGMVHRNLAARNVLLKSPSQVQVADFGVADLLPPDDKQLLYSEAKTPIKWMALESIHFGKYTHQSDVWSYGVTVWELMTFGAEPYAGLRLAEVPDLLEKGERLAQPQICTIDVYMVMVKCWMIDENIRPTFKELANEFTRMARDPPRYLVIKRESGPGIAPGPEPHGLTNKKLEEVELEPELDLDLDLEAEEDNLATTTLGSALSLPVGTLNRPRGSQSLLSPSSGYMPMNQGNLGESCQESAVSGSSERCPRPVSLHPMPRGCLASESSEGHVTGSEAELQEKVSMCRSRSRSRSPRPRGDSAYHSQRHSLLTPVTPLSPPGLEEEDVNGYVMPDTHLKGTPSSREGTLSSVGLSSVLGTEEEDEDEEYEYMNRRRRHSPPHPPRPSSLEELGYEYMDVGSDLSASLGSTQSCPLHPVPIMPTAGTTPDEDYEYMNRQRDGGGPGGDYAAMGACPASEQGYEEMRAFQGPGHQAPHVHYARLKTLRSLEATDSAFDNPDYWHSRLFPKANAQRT
5'-AMP-activated protein kinase catalytic subunit alpha-2 (Homo sapiens), sequence (P54646 whole entry, looked up): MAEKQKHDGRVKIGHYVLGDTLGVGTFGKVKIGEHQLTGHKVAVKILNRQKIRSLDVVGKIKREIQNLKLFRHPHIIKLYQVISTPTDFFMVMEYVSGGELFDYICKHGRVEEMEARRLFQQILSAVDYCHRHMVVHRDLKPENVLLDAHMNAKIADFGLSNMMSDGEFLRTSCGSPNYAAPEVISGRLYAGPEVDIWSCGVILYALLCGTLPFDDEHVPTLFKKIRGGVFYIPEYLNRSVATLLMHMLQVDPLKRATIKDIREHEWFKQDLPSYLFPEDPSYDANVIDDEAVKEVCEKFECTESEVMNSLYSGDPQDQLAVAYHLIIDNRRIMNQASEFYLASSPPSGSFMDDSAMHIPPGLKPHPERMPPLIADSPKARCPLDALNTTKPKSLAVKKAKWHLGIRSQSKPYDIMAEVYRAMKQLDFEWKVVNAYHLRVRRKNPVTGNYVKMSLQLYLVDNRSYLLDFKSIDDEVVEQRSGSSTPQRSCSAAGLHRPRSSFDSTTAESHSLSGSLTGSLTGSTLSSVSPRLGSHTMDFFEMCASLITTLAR
Ribosomal protein S6 kinase alpha-3, sequence (P51812 whole entry): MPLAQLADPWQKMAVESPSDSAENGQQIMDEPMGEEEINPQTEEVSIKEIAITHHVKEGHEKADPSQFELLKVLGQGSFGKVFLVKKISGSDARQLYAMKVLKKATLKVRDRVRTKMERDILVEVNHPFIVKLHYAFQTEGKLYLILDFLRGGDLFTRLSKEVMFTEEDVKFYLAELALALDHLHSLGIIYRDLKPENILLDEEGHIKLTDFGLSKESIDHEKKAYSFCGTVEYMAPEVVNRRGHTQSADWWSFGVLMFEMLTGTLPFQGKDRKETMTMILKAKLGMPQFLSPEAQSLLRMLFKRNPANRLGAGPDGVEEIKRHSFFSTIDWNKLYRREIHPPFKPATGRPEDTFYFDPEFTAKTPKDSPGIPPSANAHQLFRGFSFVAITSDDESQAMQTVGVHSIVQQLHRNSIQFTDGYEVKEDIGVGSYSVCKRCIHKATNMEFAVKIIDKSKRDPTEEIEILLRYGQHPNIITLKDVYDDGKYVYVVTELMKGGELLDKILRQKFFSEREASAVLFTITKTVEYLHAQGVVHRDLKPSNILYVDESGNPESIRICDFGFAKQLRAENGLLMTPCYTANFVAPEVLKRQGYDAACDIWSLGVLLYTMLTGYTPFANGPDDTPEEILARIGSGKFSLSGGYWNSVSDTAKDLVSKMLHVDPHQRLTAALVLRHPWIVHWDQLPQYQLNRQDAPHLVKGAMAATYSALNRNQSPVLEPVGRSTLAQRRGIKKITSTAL

With `C=CC(=O)Nc1cccc(C(=O)Nc2ccc(Nc3cc(-c4[nH]c(SC)nc4C)ccn3)cc2)c1`, the % of control in assay [1] (at 1 µM) was found to be 49%; in assay [1] (at 5 µM), 15%.
For the compound `Nc1cnc(N2CCc3cc(S(=O)(=O)Nc4c(F)cc(Cl)cc4F)cc(N4CCCC4=O)c32)nc1` [TP-020n], the % of control in [2] was determined as 88%.
`CCC(=O)N1CCN(c2ccc(-n3c(=O)ccc4cnc5ccc(-c6cnc7ccccc7c6)cc5c43)cc2C(F)(F)F)CC1`: in assay [3], the % of control is 59%.
`CN(C)CCOc1ccc(-c2nc(-c3ccncc3)c(-c3ccc4c(c3)CC/C4=N\O)[nH]2)cc1` yielded a % of control in assay [4] of 97%.
In [5], `Cc1cc(F)c(C(=O)Nc2cccc(-c3nncn3C(C)C)n2)cc1-n1cnc(C2CC2)c1` had a % of control of 100%.
Take `Cc1cc(C)cc([C@@H]2c3cc(C)ccc3NC(=O)CN2C(=O)c2ccc(Br)s2)c1`: the % of inhibition in assay [6] was -20%.
Regarding `C=CC(=O)Nc1cc(-n2c(=O)ccc3cnc4ccc(-c5ccc(NS(C)(=O)=O)cc5)cc4c32)ccc1C`, the % of control in assay [7] (at 1 µM) came to 100%; in [7] (at 10 µM), 75%; in [8] (at 1 µM) it was 100%; in assay [8] (at 10 µM), 20%.
Consider `CC[C@@H]1[C@H](F)C(=O)N[C@@H]1COc1nccc2cc(C(N)=O)c(OC)cc12` [ZIMLOVISERTIB], for which the % of inhibition was 3.09% in [9] and -4.1% in assay [10].
Take `COc1cc(N(C)c2ccnc3ccc(C(F)(F)F)cc23)cc(OC)c1OC`: the % binding in assay [11] turned out to be 93%.
For `COCC(=O)NC/C=C/c1ccc2ncnc(Nc3ccc(Oc4ccc(C)nc4)c(C)c3)c2c1` [CP-724714], the % of control in assay [12] turned out to be 100%.
Take `CN1Cc2nccc(-c3cn(C)nc3-c3ccc(F)cc3)c2C1=O`: the % of inhibition in assay [13] amounted to 0%.
`O[C@H]1CC[C@H](Nc2ncc3nc(Nc4c(F)cc(F)cc4F)n([C@H]4CCOC4)c3n2)CC1` gave a % of control in assay [14] of 100%.
